# In the supplement of paper PMC3937590:
# Columns and labels:
# Experiment in all cases: -log10 GI50 (growth inhibition 50%) (-log10(M)); higher = more potent growth inhibition
# LY2 = tested on: LY2
# How it was run: (§1)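 A value carrying a < qualifier equals the top dose tested. Each compound was tested in triplicate on breast cancer cell lines for 72 hours at nine doses in 1:5 serial dilution, using a luminescence read-out against a time-zero plate. Nonlinear least squares fitting of a Gompertz curve gave GI50, the molar concentration causing the set level of growth inhibition, which is reported as its negative logarithm. The logarithm is base 10.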
# MCF7 = tested on: MCF7
# How it was run: as §1
# SUM1315MO2 = tested on: SUM1315MO2
# How it was run: as §1
# T47D = tested on: T47D
# How it was run: as §1
# 184A1 = tested on: 184A1
# How it was run: as §1
# MDAMB175VII = tested on: MDAMB175VII
# How it was run: as §1
# SUM225CWN = tested on: SUM225CWN
# How it was run: as §1
# HCC2185 = tested on: HCC2185
# How it was run: as §1
# HCC1954 = tested on: HCC1954
# How it was run: as §1
# BT474 = tested on: BT474
# How it was run: as §1
# 600MPE = tested on: 600MPE
# How it was run: as §1
# HCC3153 = tested on: HCC3153
# How it was run: as §1
# HCC1937 = tested on: HCC1937
# How it was run: as §1
# MDAMB157 = tested on: MDAMB157
# How it was run: as §1
# MDAMB415 = tested on: MDAMB415
# How it was run: as §1
# SUM159PT = tested on: SUM159PT
# How it was run: as §1
# MDAMB231 = tested on: MDAMB231
# How it was run: as §1
# BT483 = tested on: BT483
# How it was run: as §1
# HCC1428 = tested on: HCC1428
# How it was run: as §1
# SUM185PE = tested on: SUM185PE
# How it was run: as §1
SMILES,-log10 GI50 (LY2),-log10 GI50 (MCF7),-log10 GI50 (SUM1315MO2),-log10 GI50 (T47D),-log10 GI50 (184A1),-log10 GI50 (MDAMB175VII),-log10 GI50 (SUM225CWN),-log10 GI50 (HCC2185),-log10 GI50 (HCC1954),-log10 GI50 (BT474),-log10 GI50 (600MPE),-log10 GI50 (HCC3153),-log10 GI50 (HCC1937),-log10 GI50 (MDAMB157),-log10 GI50 (MDAMB415),-log10 GI50 (SUM159PT),-log10 GI50 (MDAMB231),-log10 GI50 (BT483),-log10 GI50 (HCC1428),-log10 GI50 (SUM185PE)
CSCC[C@H](NC(=O)[C@H](Cc1ccccc1)NC[C@@H](NC[C@@H](N)CS)C(C)C)C(=O)O [FTase inhibitor I],< 4.48,< 4.48,< 4.18,< 4.48,< 4.18,< 4.48,4.49,< 4.48,< 4.48,< 4.18,< 4.48,< 4.48,< 4.48,< 4.18,< 4.18,5,< 4.18,< 4.48,< 4.48,
O=c1[nH]c(=O)n([C@H]2C[C@H](O)[C@@H](CO)O2)cc1F [Floxuridine],5.63,3.77,3.18,3.48,3.67,4.69,3.53,3.2,3.99,3.37,5.81,3.11,3.37,3.87,4.5,4.49,3.32,4.15,4.04,
Cc1cncc2cccc(S(=O)(=O)N3CCCN(C(=O)CN)C[C@@H]3C)c12 [Glycyl H1152],6.28,4.67,5.15,4.82,< 4.18,< 4.18,< 4.18,5.62,< 4.48,< 4.18,< 4.18,< 4.48,< 4.18,< 4.18,5.03,5.76,4.58,,< 4.18,
O=C(c1ccc(Nc2nccc(-c3cc4ccccc4s3)n2)cc1)N1CCC(N2CCCC2)CC1 [IKK 16],5.26,,5.81,5.55,6.05,,5.51,5.13,5.77,5.27,5.11,5.48,5.59,5.74,,5.8,5.44,,5.4,
CCCCCN(C)CCC(O)(P(=O)(O)O)P(=O)(O)O [Ibandronate sodium],3.9,4.31,4.29,4.46,3.81,4.47,3.3,4.92,4.26,3.98,3.67,4.05,4.53,4.36,4.29,4.37,4.21,4.24,3.89,
CS(=O)(=O)CCNCc1ccc(-c2ccc3ncnc(Nc4ccc(OCc5cccc(F)c5)c(Cl)c4)c3c2)o1 [Lapatinib],,< 4.78,4.82,4.78,5.86,6.04,6.16,< 4.78,5.58,6.4,< 4.78,< 4.78,< 4.78,< 4.78,< 4.78,< 4.78,< 4.78,< 4.78,< 4.78,< 4.78
NS(=O)(=O)c1ccc(Nc2nc(OCC3CCCCC3)c3[nH]cnc3n2)cc1 [NU6102],4.56,4.63,5.42,4.82,5.22,4.28,4.3,4.84,4.34,4.79,,4.8,4.27,4.26,4.58,4.9,,,4.87,5.02
Cc1c(O)cccc1C(=O)N[C@@H](CSc1ccccc1)[C@H](O)CN1C[C@H]2CCCC[C@H]2C[C@H]1C(=O)NC(C)(C)C [Nelfinavir],5.05,4.8,< 4.48,4.88,5.48,5.15,,< 4.48,5.01,4.9,5.05,5.21,5.15,5.09,5.25,4.76,4.91,5.01,5.16,5.24
CC(=O)O[C@H]1C(=O)[C@@]2(C)[C@H]([C@H](OC(=O)c3ccccc3)[C@]3(O)C[C@H](OC(=O)[C@H](O)[C@@H](NC(=O)c4ccccc4)c4ccccc4)C(C)=C1C3(C)C)[C@]1(OC(C)=O)CO[C@@H]1C[C@@H]2O [Paclitaxel],7.97,7.79,8.29,8.02,7.35,7.74,,8.22,8.15,7.99,7.51,7.7,7.81,8.27,8.18,8.24,8.37,7,7.58,6.64
CC(C)[C@H](CO)Nc1nc(Nc2cccc(Cl)c2)c2ncn(C(C)C)c2n1 [Purvalanol A],,4.29,5.09,< 3.78,4.62,4.12,4.36,4.43,4.11,< 3.78,4.15,3.83,4.37,< 3.78,< 3.78,< 3.78,< 3.78,4.4,4.18,4.69
CO[C@H]1C[C@@H]2CC[C@@H](C)[C@@](O)(O2)C(=O)C(=O)N2CCCC[C@H]2C(=O)O[C@H]([C@H](C)C[C@@H]2CC[C@@H](O)[C@H](OC)C2)CC(=O)[C@H](C)/C=C(\C)[C@@H](O)[C@@H](OC)C(=O)[C@H](C)C[C@H](C)/C=C/C=C/C=C/1C [Rapamycin],,6.84,5.56,6.36,6.72,8.43,7.97,8.79,8.45,7.62,5.12,5.25,5.91,< 3.78,8.69,7.34,5.78,8.78,7.29,6.04
Cc1cc(C(=O)N2CCN(c3cccc(Cl)c3)CC2)n(-c2ccccc2)n1 [XRP44X],6.08,6.4,6.14,5.41,6.5,5.44,5.5,6.31,6.3,4.61,< 3.88,5.74,< 3.88,5.95,6.2,6.21,5.98,5.23,5.85,
